Source: US20060199821A1, “Heterocyclic amides and sulfonamides” (Scios, Inc., priority 2003, published 2006)
pIC50: −log10 of the molar value.

These molecules were tested against p38-α kinase (Homo sapiens, UniProt Q16539) (assay: Human whole blood assay for p38 kinase inhibition, diluted (1:10) whole blood, LPS-induced TNF-α by ELISA). Conditions: LPS-stimulated TNF-α production.
Format: cell-based
Description: For each of the assay procedures described below, the TNF-α production correlates to the activity of p38-α kinase.
A. Human Whole Blood Assay for p38 Kinase Inhibition
Venous blood is collected from healthy male volunteers into a heparinized syringe and is used within 2 hours of collection. Test compounds are dissolved in 100% DMSO and 1 μl aliquots of drug concentrations ranging from 0 to 1 mM are dispensed into quadruplicate wells of a 24-well microtiter plate (Nunclon Delta SI, Applied Scientific, So. San Francisco, Calif.). Whole blood is added at a volume of 1 ml/well and the mixture is incubated for 15 minutes with constant shaking (Titer Plate Shaker, Lab-Line Instruments, Inc., Melrose Park, Ill.) at a humidified atmosphere of 5% CO2 at 37° C. Whole blood is cultured either undiluted or at a final dilution of 1:10 with RPMI 1640 (Gibco 31800+NaHCO3, Life Technologies, Rockville, Md. and Scios, Inc., Sunnyvale, Calif.). At the end of the incubation period, 10 μl of LPS (E. coli 0111:B4, Sigma Chemical Co., St. Louis, Mo.) is added to each well to a final concentration of 1 or 0.1 μg/ml for undiluted or 1:10 diluted whole blood, respectively. The incubation is continued for an additional 2 hours. The reaction is stopped by placing the microtiter plates in an ice bath and plasma or cell-free supernates are collected by centrifugation at 3000 rpm for 10 minutes at 4° C. The plasma samples are stored at −80° C. until assayed for TNF-α levels by ELISA, following the directions supplied by Quantikine Human TNF-α assay kit (R&D Systems, Minneapolis, Minn.).
IC50 values are calculated using the concentration of inhibitor that causes a 50% decrease as compared to a control. IC50 values can be determined with curve-fitting plots available with common software packages. Approximate IC50 values can be calculated using formula: IC50 (app)=A×i/(1−A)
where A=fractional activity and i=total inhibitor concentration.
IC50 values are calculated using the concentration of inhibitor that causes a 50% decrease as compared to a control.

Sequence of p38-α kinase (Q16539 whole entry): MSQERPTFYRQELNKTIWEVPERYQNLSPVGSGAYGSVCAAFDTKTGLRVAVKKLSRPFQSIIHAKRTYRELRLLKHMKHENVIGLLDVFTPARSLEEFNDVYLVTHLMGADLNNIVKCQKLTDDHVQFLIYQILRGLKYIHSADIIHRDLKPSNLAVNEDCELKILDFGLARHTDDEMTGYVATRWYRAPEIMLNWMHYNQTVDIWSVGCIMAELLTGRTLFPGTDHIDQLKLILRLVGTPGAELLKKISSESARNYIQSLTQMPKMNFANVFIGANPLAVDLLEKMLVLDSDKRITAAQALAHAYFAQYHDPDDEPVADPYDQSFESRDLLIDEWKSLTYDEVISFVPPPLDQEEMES

pIC50, > 6.00:
C[C@H](Nc1nccc(N(C)C(=O)c2ccc3ccccc3c2)n1)c1ccccc1 [Example 77]
CCN(C(=O)c1ccc2c(c1)CCO2)c1ccnc(N[C@@H](C)c2ccccc2)n1 [Example 84]
C[C@H](Nc1nccc(N(Cc2ccc(F)cc2)C(=O)c2ccc3ccccc3c2)n1)c1ccccc1 [Example 70]
CCN(C(=O)c1ccc2ccccc2c1)c1ccnc(N[C@@H](C)c2ccccc2)n1 [Example 20, Naphthalene-2-carboxylic acid ethyl-[2-(1S-phenyl-ethylamino)-pyrimidin-4-yl]-amide]
CC(C)N(C(=O)c1ccc2ccccc2c1)c1ccnc(N[C@@H](C)c2ccccc2)n1 [Example 73]
COCCN(C(=O)c1ccc2ccccc2c1)c1ccnc(N[C@@H](C)c2ccccc2)n1 [Example 76]
C[C@H](Nc1nccc(N(Cc2cccnc2)C(=O)c2ccc3ccccc3c2)n1)c1ccccc1 [Example 83]
